In article PMC2873968, “Novel protein kinase D inhibitors cause potent arrest in prostate cancer cell growth and motility” (BMC Chemical Biology, 2010):

What was measured:
PKCα = biological target: T1, PKCα (Homo sapiens, UniProt P17252); experiment: In vitro radiometric PKC kinase assay; assay type: biochemical
T1 construct: purchased Cell Signaling Technology and Calbiochem
Protocol: (§1) The PKC in vitro kinase assays were performed as described previously.
(§2) To determine whether the novel analogs retained this specificity, we tested the compounds against their ability to inhibit PKCα, -βI, -δ, and CAMKIIα in in vitro radiometric kinase activity assays. All analogs were poor inhibitors of PKCα and PKCβI, with only slight (< 50%) inhibitory activity at 10 μM concentration (Fig. 5A and 5B).
(§3) Inhibition of PKCα (A), PKCβI (B), PKCδ (C), or CAMKIIα (D) by each of the 5 analogs was determined at 100 nM, 1 μM, and 10 μM concentrations. In the PKC assays, the potent PKC inhibitor GF109203X was used as a control. Data are the mean ± S.E.M. of three independent experiments. Statistical significance was determined using the unpaired t-test. ns, not statistically significant; *, p < 0.05; **, p < 0.01; ***, p < 0.001.

PKCβI = biological target: T2, PKCβI (Homo sapiens, UniProt P05771); experiment: In vitro radiometric PKC kinase assay; assay type: biochemical
T2 construct: purchased Cell Signaling Technology
Protocol: as §1, §2, §3

PKCδ = biological target: T3, PKCδ (Homo sapiens, UniProt Q05655); experiment: In vitro radiometric PKC kinase assay; assay type: biochemical
T3 construct: purchased Enzo Life Sciences
Protocol: as §1
To determine whether the novel analogs retained this specificity, we tested the compounds against their ability to inhibit PKCα, -βI, -δ, and CAMKIIα in in vitro radiometric kinase activity assays.
as §3, with “In the PKC assays, the potent PKC inhibitor GF109203X was used as a control.” left out

PKD = settings: reported values, no reference given; cited from earlier work

T2 sequence (P05771 whole entry): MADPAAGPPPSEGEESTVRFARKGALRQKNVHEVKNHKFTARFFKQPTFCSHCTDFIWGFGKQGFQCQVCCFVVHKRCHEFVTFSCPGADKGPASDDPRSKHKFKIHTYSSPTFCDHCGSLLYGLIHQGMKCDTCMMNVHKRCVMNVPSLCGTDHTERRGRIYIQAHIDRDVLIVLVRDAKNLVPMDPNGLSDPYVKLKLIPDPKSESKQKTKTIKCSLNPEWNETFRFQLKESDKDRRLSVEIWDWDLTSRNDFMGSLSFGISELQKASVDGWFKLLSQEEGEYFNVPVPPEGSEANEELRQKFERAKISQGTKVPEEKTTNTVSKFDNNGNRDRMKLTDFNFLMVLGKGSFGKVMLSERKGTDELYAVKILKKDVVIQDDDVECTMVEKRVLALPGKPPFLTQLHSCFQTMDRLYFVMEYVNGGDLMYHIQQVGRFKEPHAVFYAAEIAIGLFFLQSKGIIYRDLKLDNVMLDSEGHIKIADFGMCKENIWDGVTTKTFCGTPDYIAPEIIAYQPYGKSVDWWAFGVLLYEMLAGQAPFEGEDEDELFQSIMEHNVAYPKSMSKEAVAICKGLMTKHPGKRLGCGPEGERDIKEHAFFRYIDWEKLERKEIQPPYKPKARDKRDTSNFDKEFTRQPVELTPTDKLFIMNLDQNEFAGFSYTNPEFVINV
T3 sequence (Q05655 whole entry): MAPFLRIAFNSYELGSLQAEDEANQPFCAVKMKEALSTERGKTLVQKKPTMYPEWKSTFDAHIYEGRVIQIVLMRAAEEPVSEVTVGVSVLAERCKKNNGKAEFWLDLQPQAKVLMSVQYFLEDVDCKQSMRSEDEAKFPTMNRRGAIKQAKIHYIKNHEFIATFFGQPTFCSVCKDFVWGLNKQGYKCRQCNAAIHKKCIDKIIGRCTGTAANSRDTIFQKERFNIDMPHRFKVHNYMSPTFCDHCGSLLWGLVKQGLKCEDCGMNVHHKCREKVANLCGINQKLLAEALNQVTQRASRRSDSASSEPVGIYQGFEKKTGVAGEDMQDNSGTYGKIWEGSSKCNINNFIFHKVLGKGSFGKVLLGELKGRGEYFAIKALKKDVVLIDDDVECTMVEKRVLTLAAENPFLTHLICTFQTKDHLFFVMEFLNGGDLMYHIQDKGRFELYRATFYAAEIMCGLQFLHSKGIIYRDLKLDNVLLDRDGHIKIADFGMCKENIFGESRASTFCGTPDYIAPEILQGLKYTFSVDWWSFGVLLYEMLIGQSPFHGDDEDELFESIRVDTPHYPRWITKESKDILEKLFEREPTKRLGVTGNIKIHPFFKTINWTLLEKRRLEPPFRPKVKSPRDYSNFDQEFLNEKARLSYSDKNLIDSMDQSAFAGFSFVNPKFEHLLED

SMILES	inhibition of PKCα (in words) (PKCα)	inhibition of PKCβI (in words) (PKCβI)	inhibition of PKCδ (in words) (PKCδ)	IC50 (PKD)
CN(C)CCCn1cc(C2=C(c3c[nH]c4ccccc34)C(=O)NC2=O)c2ccccc21 [GF109203X]	strong inhibition	strong inhibition	strong inhibition	
COC(=O)[C@@]1(O)C[C@H]2O[C@]1(C)n1c3ccccc3c3c4c(c5c6ccccc6n2c5c31)C(=O)NC4 [Compound K252a]				7 nM
Cn1c2ccccc2c2c3c(c4c5ccccc5n(CCC#N)c4c21)CNC3=O [Gö6976]				20 nM
